Data taken from patent US12016863B2, “Inhibitors of RSV replication and applications thereof” (priority 2018, dated 2024).

Key:
[1] = Cytotoxicity in BEAS2B cells; type: cell-based; settings: human, read-out: CC50 BEAS2B cells RSV
Excerpt: (§1) For initial potency assessment, recombinant RSV reporter viruses can be employed to determine dose-response curves. These tests can be run routinely in an automated format, simultaneously assessing 8-fold serial compound dilutions in 3 independent replicates. Active concentrations can be calculated by four-parameter variable slope regression modeling. Individual prodrug candidates failing this assay can be tested for membrane permeability using a Caco-2 cell assay. Resistance-validated Caco-2 monolayers (TEER value >0.5×103Ω) will receive compound from the apical side, followed by LC-MS/MS-based quantification of substance intracellularly and in both chambers after 2-hour incubation. Atenolol, propranolol, and talinolol can be included as references and permeability coefficients (Papp) calculated. Candidates with poor Papp values can be reformulated synthetically. In parallel, all candidates can be subjected to rapid cytotoxicity screening, relying on PrestoBlue to monitor the redox potential of living cells after 48-hour exposure to a concentration range of compound. A validated automated cytotoxicity test pipeline has been established and can calculate CC50 values through variable slope regression modeling.

[2] = target: RSV N protein (N-P interaction) (Human respiratory syncytial virus A (strain A2), UniProt P03418); assay: FP assay: competition with 5-FAM-Ppep for purified RSV N; type: binding; settings: for Ki: FP assay, purified RSV N vs 5-FAM-Ppep
Sequence of RSV N protein (N-P interaction) (P03418 whole entry): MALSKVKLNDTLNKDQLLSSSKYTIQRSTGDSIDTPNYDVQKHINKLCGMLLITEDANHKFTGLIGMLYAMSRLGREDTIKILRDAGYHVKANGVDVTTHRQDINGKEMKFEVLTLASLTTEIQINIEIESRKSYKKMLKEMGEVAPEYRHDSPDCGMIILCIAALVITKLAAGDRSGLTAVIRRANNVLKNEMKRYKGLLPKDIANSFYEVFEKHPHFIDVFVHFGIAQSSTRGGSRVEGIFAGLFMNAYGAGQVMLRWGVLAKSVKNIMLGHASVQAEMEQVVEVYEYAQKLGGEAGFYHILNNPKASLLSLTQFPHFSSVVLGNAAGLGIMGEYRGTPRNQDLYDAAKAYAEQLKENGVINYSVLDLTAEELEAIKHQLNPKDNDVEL

RSV [3] = assay: Cell-based anti-RSV potency in BEAS2B cells; settings: human respiratory syncytial virus, BEAS-2B
Excerpt: as §1

[4] = Cytotoxicity in HEp2 cells; type: cell-based; settings: human, read-out: CC50 HEp2 cells RSV
Excerpt: as §1

RSV [5] = assay: Cell-based anti-RSV potency in HEp2 cells; settings: human respiratory syncytial virus, HEp-2
Excerpt: as §1

RSV N-P interaction = RSV N-P interaction (Human respiratory syncytial virus A (strain A2), UniProt P03418); assay: Biolayer interferometry (BLI) competition assay, purified N to P protein biosensors; type: binding; settings: PBS+BSA 0.01% +Tween20 0.002%
Sequence of RSV N-P interaction (P03418 whole entry): as above
Excerpt: Dissociation rates of purified N to P protein biosensors determined in presence of GRP-171194 under stringent conditions (PBS+BSA 0.01% +Tween20 0.002%).

Structure (SMILES)	CC50 at 48 h [1] [µM]	Ki [2] [µM]	IC50 (RSV [3]) [µM]	CC50 at 48 h [4] [µM]	IC50 (RSV [5]) [µM]	competition with 5-FAM-Ppep for N in FP assay ([2]; compound 0.31-40 μM, 5-FAM-Ppep 1 μM)	inhibition of purified N binding to P protein biosensors (BLI) (RSV N-P interaction)
Cc1c(Cl)c(=O)oc2cc(O)ccc12 [AX801]	116	> 300	65	–	–	–	–
CC(C)COC(=O)C1=CC(c2ccccc2Cl)n2nnnc2N1 (centres unmarked) [EJ3043]	> 300	> 300	> 300	> 300	> 300	–	–
COC(=O)C1=CC(c2ccccc2Cl)n2nnnc2N1 (centres unmarked) [EJ3051]	102	> 300	101	–	–	–	–
CN(C)C(=O)C1=CC(c2ccccc2Cl)n2nnnc2N1 (centres unmarked) [EJ3054]	131	> 300	100	–	–	–	–
CNC(=O)C1=CC(c2ccccc2Cl)n2nnnc2N1 (centres unmarked) [EJ3057]	> 100	> 300	112	–	–	–	–
COc1ccc2c(C)c(Cl)c(=O)oc2c1 [EJ3061]	–	> 300	–	–	–	–	–
CCOC(=O)C1=CC(c2ccccc2Cl)n2nnnc2N1 (centres unmarked) [EJ3062]	> 300	> 300	> 300	> 300	> 300	–	–
Cc1c(Cl)c(=O)oc2cc(OC(C)C)ccc12 [EJ3063]	> 300	> 300	14.6	1.2	1.9	–	–
COC(=O)Nc1ccc2c(C)c(Cl)c(=O)oc2c1 [EJ3066]	> 100	> 300	130	> 100	> 100	–	–
CC(=O)Oc1ccc2c(C)cc(=O)oc2c1 [EJ21257]	113	2.9	> 300	> 100	> 300	–	–
O=C(O)C1=CC(c2ccccc2Cl)n2nnnc2N1 (centres unmarked) [GRP-171194, 7-(2-chlorophenyl)-4,7-dihydrotetrazolo[1,5-a]pyrimidine-5-carboxylic acid]	> 300	2.4	> 300	> 300	> 300	dose-dependent competition	dose-dependent inhibition
CC(=O)Oc1ccc2c(C)c(Cl)c(=O)oc2c1 [GRP-268365]	–	2.2	–	–	–	–	–
O=C(O)C1=CC(c2ccccc2)n2nnnc2N1 (centres unmarked) [RJW-3-024]	> 300	10	> 300	–	–	–	–
O=C(OCC(F)(F)F)C1=CC(c2ccccc2Cl)n2nnnc2N1 (centres unmarked) [ZD-3-064]	> 300	> 300	> 300	–	–	–	–
Cc1c(Cl)c(=O)oc2cc(OC(=O)C(C)C)ccc12 [ZD-3-067]	251	1.6	136	7	6.5	–	–
CC(C)OC(=O)C1=CC(c2ccccc2Cl)n2nnnc2N1 (centres unmarked) [ZD-3-069]	> 300	> 300	> 300	> 300	> 300	–	–
